Results taken from US20210198277A1, “AMINE-SUBSTITUTED ARYL OR HETEROARYL COMPOUNDS” (Epizyme, Inc., priority 2016, published 2021).

Biological target: T1, EHMT1 (Homo sapiens, UniProt Q9H9B1)
T1 sequence (Q9H9B1 1-1298): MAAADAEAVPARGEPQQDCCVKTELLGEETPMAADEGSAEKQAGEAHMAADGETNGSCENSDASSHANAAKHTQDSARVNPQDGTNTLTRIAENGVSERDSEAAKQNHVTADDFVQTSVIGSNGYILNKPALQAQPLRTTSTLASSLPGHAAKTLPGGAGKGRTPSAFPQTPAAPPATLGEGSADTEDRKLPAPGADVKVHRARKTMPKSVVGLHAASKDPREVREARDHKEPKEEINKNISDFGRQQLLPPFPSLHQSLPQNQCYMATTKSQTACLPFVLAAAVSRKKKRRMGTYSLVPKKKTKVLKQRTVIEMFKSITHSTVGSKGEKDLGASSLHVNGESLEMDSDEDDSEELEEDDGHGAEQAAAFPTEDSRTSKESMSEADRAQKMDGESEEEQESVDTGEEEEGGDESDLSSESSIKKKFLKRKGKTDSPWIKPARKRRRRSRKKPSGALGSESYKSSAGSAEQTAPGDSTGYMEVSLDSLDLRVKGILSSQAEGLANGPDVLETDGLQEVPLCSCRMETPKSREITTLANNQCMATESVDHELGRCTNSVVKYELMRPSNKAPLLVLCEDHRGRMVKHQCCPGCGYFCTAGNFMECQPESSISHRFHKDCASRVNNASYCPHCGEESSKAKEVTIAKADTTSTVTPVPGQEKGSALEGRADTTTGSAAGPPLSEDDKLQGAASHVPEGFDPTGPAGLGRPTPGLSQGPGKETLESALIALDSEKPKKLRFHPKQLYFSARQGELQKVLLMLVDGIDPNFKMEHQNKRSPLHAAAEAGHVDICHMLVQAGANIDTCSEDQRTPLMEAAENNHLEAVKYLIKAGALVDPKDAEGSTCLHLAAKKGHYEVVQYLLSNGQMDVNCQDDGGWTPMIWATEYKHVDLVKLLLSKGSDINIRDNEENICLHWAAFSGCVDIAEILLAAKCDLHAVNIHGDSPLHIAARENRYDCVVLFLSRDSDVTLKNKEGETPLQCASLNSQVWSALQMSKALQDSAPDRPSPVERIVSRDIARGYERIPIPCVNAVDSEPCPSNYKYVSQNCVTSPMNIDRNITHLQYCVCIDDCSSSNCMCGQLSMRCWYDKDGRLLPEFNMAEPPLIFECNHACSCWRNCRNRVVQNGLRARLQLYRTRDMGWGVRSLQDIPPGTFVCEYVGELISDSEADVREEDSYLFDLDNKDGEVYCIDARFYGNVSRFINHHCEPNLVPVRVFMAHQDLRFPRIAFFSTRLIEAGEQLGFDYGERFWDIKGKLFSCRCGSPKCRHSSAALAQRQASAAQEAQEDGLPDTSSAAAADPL
Experiment: EHMT1 enzyme assay on peptide substrate (EHMT1 PEP)
Assay type: biochemical
Conditions: Table VII; read-out: EHMT1 PEP IC50

| IC50 | Structure (SMILES) |
| --- | --- |
| < 100 nM | CNc1cc(C)nc(Nc2ccc(OC)c(CNCCN(C)C)c2)n1 [Compound 1101] |
| < 100 nM | CNC[C@H](C)NCc1cc(Nc2nc(C)cc(NC)n2)ccc1OC [Compound 1102] |
| 1000 to 10000 nM | CNC[C@@H](C)NCc1cc(Nc2nc(C)cc(NC)n2)ccc1OC [Compound 1103] |
| < 100 nM | CNc1cc(C)nc(Nc2ccc(OC)c(COCCN3CCCC3)c2)n1 [Compound 1104] |
| 100 to 1000 nM | CNc1cc(C)nc(Nc2ccc(OC)c(COCCN(C)C)c2)n1 [Compound 1105] |
| < 100 nM | CCNc1cc(C)nc(Nc2ccc(OC)c(OC[C@H](O)CN3CCCC3)c2)n1 [Compound 1106] |
| < 100 nM | CNc1cc(C2CCOCC2)c2cc(OC)c(OC[C@H](O)CN3CCCC3)cc2n1 [Compound 1107] |
